Measured values from ChEMBL document CHEMBL1201862, “PubChem BioAssay data set” (2004).
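Step 1: Grow cells in 96-well plates. Step 2: Expose to compound for 48 hours at 5 concentrations. Step 3: Interpolate endpoints linearly; if unreached, use highest concentration. GI50 marks 50% less growth.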 Calls of active or inactive are those of the source. No stated cut-off is given here; in the data, active = GI50 up to about 1.1 µM and inactive = higher.

Key:
Assay in all cases: growth of human tumour cells (NCI), 48 h
[1] = system: TK-10
[2] = system: SF-295
[3] = system: CCRF-CEM
[4] = system: NCI-H23
[5] = system: UACC-257
[6] = system: K562
[7] = system: HCC 2998
[8] = system: OVCAR-8
[9] = system: EKVX
[10] = system: HCT-116
[11] = system: HOP-92
[12] = system: 786-0
[13] = system: MDA-N
[14] = system: CAKI-1
[15] = system: HT-29
[16] = system: NCI-H226
[17] = system: T47D
[18] = system: SF-539
[19] = system: SK-MEL-28
[20] = system: SR
[21] = system: MOLT-4
[22] = system: HL-60
[23] = system: M14
[24] = system: HOP-62
[25] = system: RXF 393
[26] = system: KM12
[27] = system: COLO 205
[28] = system: NCI/ADR-RES
[29] = system: OVCAR-4
[30] = system: SN12C
[31] = system: NCI-H460
[32] = system: SW-620
[33] = system: U-251
[34] = system: BT-549
[35] = system: NCI-H522
[36] = system: HCT-15
[37] = system: SNB-19
[38] = system: UACC-62
[39] = system: MDA-MB-231
[40] = system: DU-145
[41] = system: SF-268
[42] = system: OVCAR-3
[43] = system: PC-3
[44] = system: UO-31
[45] = system: MCF7
[46] = system: SNB-75
[47] = system: SK-MEL-5
[48] = system: ACHN
[49] = system: MDA-MB-435
[50] = system: LOX IMVI
[51] = system: A549
[52] = system: Hs-578T
[53] = system: IGROV-1

Measured: GI50

CC(N/N=C(\S)N1CCN(c2ccccn2)CC1)c1cccc[n+]1[O-] (stereo not drawn)
3.28 µM: [36]
inactive: [1] 32 µM | [2] 12.3 µM | [3] 1.98 µM | [4] 28.2 µM | [5] 30.9 µM | [7] 21.1 µM | [8] 6.9 µM | [9] 6.47 µM | [10] 2.82 µM | [11] 20.5 µM | [12] 7.71 µM | [13] 18.4 µM | [14] 14.2 µM | [16] 34.9 µM | [17] 77.1 µM | [18] 17.4 µM | [19] 16.8 µM | [20] 4.58 µM | [21] 2.58 µM | [22] 3.13 µM | [23] 28.3 µM | [24] 67.3 µM | [25] 16.2 µM | [26] 52.4 µM | [27] 10.5 µM | [28] 2.9 µM | [29] 14 µM | [30] 23.6 µM | [31] 5.31 µM | [32] 4.85 µM | [33] 12.8 µM | [34] 43.2 µM | [35] 2.12 µM | [37] 32.9 µM | [38] 2.95 µM | [39] 19 µM | [40] 57.1 µM | [41] 22.8 µM | [42] 4.9 µM | [43] 15.3 µM | [44] 8.13 µM | [45] 13.2 µM | [46] 48.6 µM | [47] 12.5 µM | [48] 6.01 µM | [49] 25.3 µM | [50] 8.17 µM | [51] 8.65 µM | [52] 85.7 µM | [53] 43.8 µM
active: [6] 0.811 µM | [15] 0.661 µM
